Results: patent US9216157B2, “Chewing gum in the form of multi-layer tablets” (Jagotec AG, priority 2003, dated 2015)
Blank lines part the entries; values can stand above or below the compound they belong to.

How the values were obtained:
[1] = Evaluation of release of active component in vivo (chewing by volunteers, residue analysed); parameters: species or system human; settings: for Caffeine released in vivo (average): average of 3 volunteers
Experimental: To establish the release of active component from the chewing gum, the tablets were tested by a panel of 3 volunteers. For each test, the volunteer was asked to chew one piece of gum for a set time. After that time the gum was ground, and the active component content analysed. The in vivo tests were conducted with the following chewing times: 5, 10, 15, 20, 30 and 40 minutes. The gum residue was weighed, frozen and finely ground. An exactly weighed amount of this powder was then subjected to the dissolution test according to the American Pharmacopoeia, using 1000 mL of water at 37° as dissolving fluid, and a paddle at 100 rpm. The test was performed by the spectrophotometry method, operating at 273 nm. The amount of active component released in vivo was determined by subtracting the amount of caffeine in the residue from the amount present in the pharmaceutical form.

[2] = Dissolution test according to the American Pharmacopoeia (paddle, 100 rpm, 1000 mL water, 37°); type: physicochemical
Experimental: The tablets were then subjected to the dissolution test according to the American Pharmacopoeia method, using 1000 mL of water at 37° as dissolving fluid and a paddle at 100 rpm. The test was performed by the spectrophotometry method, operating at 280 nm.

[3] = Example 3 tablet, chewing time 5 minutes
[4] = Example 3 tablet, chewing time 10 minutes
[5] = Example 3 tablet, chewing time 15 minutes
[6] = Example 3 tablet, chewing time 20 minutes
[7] = Example 3 tablet, chewing time 30 minutes
[8] = Example 3 tablet, chewing time 40 minutes
[9] = Example 5 four-layer tablets (50 mg levodopa, 12.5 mg carbidopa), time 0 min
[10] = Example 5 four-layer tablets, time 5 min
[11] = Example 5 four-layer tablets, time 15 min
[12] = Example 5 four-layer tablets, time 20 min
[13] = Example 5 four-layer tablets, time 25 min
[14] = Example 5 four-layer tablets, time 30 min
[15] = Example 5 four-layer tablets, time 35 min
[16] = Example 5 four-layer tablets, time 40 min

SMILES: Cn1c(=O)c2c(ncn2C)n(C)c1=O [Caffeine]
- Caffeine released in vivo, Volunteer 2 [1, 3]: 77.02%
- Caffeine released in vivo, Volunteer 3 [1, 3]: 75.07%
- Caffeine released in vivo (average) [1, 3]: 74.54%
- Caffeine released in vivo, Volunteer 1 [1, 4]: 86.03%
- Caffeine released in vivo, Volunteer 2 [1, 4]: 83.66%
- Caffeine released in vivo, Volunteer 3 [1, 4]: 84.94%
- Caffeine released in vivo (average) [1, 4]: 84.88%
- Caffeine released in vivo, Volunteer 1 [1, 5]: 90.18%
- Caffeine released in vivo, Volunteer 2 [1, 5]: 90.97%
- Caffeine released in vivo, Volunteer 3 [1, 5]: 91.07%
- Caffeine released in vivo (average) [1, 5]: 90.74%
- Caffeine released in vivo, Volunteer 1 [1, 6]: 89.45%
- Caffeine released in vivo, Volunteer 2 [1, 6]: 91.58%
- Caffeine released in vivo, Volunteer 3 [1, 6]: 89.61%
- Caffeine released in vivo (average) [1, 6]: 90.21%
- Caffeine released in vivo, Volunteer 1 [1, 7]: 93.92%
- Caffeine released in vivo, Volunteer 2 [1, 7]: 92.25%
- Caffeine released in vivo, Volunteer 3 [1, 7]: 92.49%
- Caffeine released in vivo (average) [1, 7]: 92.89%
- Caffeine released in vivo, Volunteer 1 [1, 8]: 92.79%
- Caffeine released in vivo, Volunteer 2 [1, 8]: 93.34%
- Caffeine released in vivo, Volunteer 3 [1, 8]: 92.34%
- Caffeine released in vivo (average) [1, 8]: 92.82%
- Caffeine released in vivo, Volunteer 1 ([1]; Example 3 three-layer chewing gum tablet, 10 mg caffeine, chewing time 5 minutes): 71.52%

- percentage released by the tablets [2, 9]: 0.00%
- percentage released by the tablets [2, 10]: 78.23%
- percentage released by the tablets [2, 11]: 92.63%
- percentage released by the tablets [2, 12]: 94.97%
- percentage released by the tablets [2, 13]: 96.55%
- percentage released by the tablets [2, 14]: 98.18%
- percentage released by the tablets [2, 15]: 98.77%
- percentage released by the tablets [2, 16]: 100.00%
SMILES: C[C@@](Cc1ccc(O)c(O)c1)(NN)C(=O)O [carbidopa, Carbidopa]

- percentage released by the tablets [2, 9]: 0.00%
- percentage released by the tablets [2, 10]: 63.52%
- percentage released by the tablets [2, 11]: 90.00%
- percentage released by the tablets [2, 12]: 92.47%
- percentage released by the tablets [2, 13]: 94.04%
- percentage released by the tablets [2, 14]: 94.90%
- percentage released by the tablets [2, 15]: 95.66%
- percentage released by the tablets [2, 16]: 96.28%
SMILES: N[C@@H](Cc1ccc(O)c(O)c1)C(=O)O [levodopa, Levodopa]
